{"source": "paper PMC11475281", "about": "“A Novel Liver Cancer-Selective Histone Deacetylase Inhibitor Is Effective against Hepatocellular Carcinoma and Induces Durable Responses with Immunotherapy” (ACS Pharmacology & Translational Science, 2024)", "key": {"HDAC10": {"target": "HDAC10 (Homo sapiens, UniProt Q969S8)", "sequence (Q969S8 whole entry, canonical isoform)": "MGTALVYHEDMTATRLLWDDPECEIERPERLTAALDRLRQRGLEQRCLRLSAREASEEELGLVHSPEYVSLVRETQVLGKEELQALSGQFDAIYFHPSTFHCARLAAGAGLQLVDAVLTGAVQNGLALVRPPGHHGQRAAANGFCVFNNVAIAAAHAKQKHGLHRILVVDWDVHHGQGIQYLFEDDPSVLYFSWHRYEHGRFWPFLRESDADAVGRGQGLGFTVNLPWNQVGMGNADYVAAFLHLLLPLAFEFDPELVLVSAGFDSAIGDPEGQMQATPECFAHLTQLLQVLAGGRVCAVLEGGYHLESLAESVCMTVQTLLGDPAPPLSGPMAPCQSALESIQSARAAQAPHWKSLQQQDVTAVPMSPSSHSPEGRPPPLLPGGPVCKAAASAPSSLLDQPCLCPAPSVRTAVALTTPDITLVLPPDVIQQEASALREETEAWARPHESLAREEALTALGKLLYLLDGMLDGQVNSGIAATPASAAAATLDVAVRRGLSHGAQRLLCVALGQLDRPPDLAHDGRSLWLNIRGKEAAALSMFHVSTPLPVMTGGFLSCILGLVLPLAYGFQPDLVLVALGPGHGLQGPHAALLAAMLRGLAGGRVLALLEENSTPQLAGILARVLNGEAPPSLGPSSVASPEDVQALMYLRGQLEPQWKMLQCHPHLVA", "test": "HDAC isoform inhibition (BPS Bioscience)"}, "HDAC3/ NCOR2": {"target": "HDAC3/ NCOR2 (Homo sapiens, UniProt O15379)", "sequence (O15379 whole entry, canonical isoform)": "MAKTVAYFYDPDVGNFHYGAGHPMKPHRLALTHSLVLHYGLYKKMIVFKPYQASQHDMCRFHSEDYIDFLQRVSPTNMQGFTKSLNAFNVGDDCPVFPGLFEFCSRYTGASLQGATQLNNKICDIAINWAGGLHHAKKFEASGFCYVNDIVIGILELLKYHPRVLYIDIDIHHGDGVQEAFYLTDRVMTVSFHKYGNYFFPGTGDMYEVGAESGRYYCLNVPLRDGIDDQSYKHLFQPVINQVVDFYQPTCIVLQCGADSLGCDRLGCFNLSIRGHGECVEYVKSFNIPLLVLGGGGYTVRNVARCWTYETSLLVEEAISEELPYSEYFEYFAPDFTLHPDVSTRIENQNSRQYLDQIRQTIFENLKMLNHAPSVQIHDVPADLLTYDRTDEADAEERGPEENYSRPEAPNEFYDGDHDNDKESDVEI", "sequence (Q9Y618 395-489 partner limits assumed)": "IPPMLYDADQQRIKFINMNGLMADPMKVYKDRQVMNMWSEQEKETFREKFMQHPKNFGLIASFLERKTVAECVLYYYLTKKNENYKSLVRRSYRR", "test": "HDAC isoform inhibition (BPS Bioscience)"}, "[1]": {"test": "Tissue distribution by LC-MS", "assay_type": "in vivo", "conditions": "both sexes, healthy mice, i.p. 25 mg/kg", "procedure": "To determine if liver tissue accumulation plays a role in the observed in vivo efficacy of STR-V-53, we used LC-MS to evaluate the distribution of STR-V-53 in selected tissues (liver and lungs) and plasma. We analyzed samples from healthy mice exposed to STR-V-53 (i.p. injection) at 25 mg/kg for 8 h. […] The average level of STR-V-53 in circulation in the plasma of healthy mice was ∼ […] 8 h postinjection. In contrast, the level of STR-V-53 in the liver was approximately 4 times its plasma level (Figure 5d). […]\nfor another 48 h. Cells were washed with cold 1x PBS solution twice and trypsinized.\nSubsequently, cells were collected using 5 mL 1x PBS buffer and fixed overnight at -20 °C using 70% ethanol. Cells were centrifuged in 1x PBS on day 2 at 4 °C with a spin speed of 3,000g, re-suspended in 1x PBS, and centrifuged again under the same condition. The supernatant was removed, and the cell pellets were re-suspended with 500 µL of 200 ug/mL RNase for 30 min.\nThen cells were treated with another 500 µL of 100 ug/mL PI staining at room temperature for 30 min. The cell cycle was analyzed with BD FACS Aria Illu analyzer, and the data were […]\nThe stability of STR-V-53 in murine and human plasmas was determined through a contract agreement with Cyprotex, an Evotec Company (https://www.cyprotex.com)\nMaximum tolerated dose determination\nC57BL/6 mice, 6–8 weeks old, 3 males and 3 females per treatment group, were injected […]\ndays in Kolliphor/DMA/water vehicle. We measured body weight and monitored daily food consumption, overall health, and mortality. On the eighth day, mice were sacrificed by cervical dislocation, and organs were harvested and frozen at −80 ◦C.\nTissue distribution studies\nC57Bl/6 mice, 6–8 weeks old, 3 males and 3 females per treatment group, were injected […]\nthe injection, organs were harvested and frozen at −80 °C for subsequent quantification by LC-"}, "[2]": {"tested_on": "NCI-60 panel cancer cells", "test": "NCI-60 panel one-dose screen", "assay_type": "cell-based", "conditions": "10 μM", "procedure": "To further investigate the cancer cell-type selectivity of these glycosylated HDACi, we screened STR-V-53 (10 μM) in the NCI 60 panel. […] The antiproliferative effect of STR-V-53 against Hep-G2 cells and its lack of growth inhibition in the NCI-60 panel strongly support the HCC cell-selective attribute of STR-V-53 and possibly other lead glycosylated HDACi identified herein."}, "Huh-7": {"tested_on": "Huh-7", "test": "MTS cell viability assay, 72 h", "assay_type": "cell-based", "conditions": "Homo sapiens, Figure 1g, read-out: Anti-proliferation effects IC50 (μM) Huh-7", "excerpt": "(§1) We then screened STR-V-53 and all the synthesized glycosylated HDACi for their effects on the viability of three cell lines: A549 (lung adenocarcinoma), Hep-G2 (HCC), and VERO (a normal kidney epithelial cell). We used SORA and STR-V-48, a previously disclosed nonglycosylated compound, as controls.[25] […] Additionally, compound STR-V-167, the peracetylated analog of STR-V-53, largely retained the Hep-G2 selectivity of STR-V-53 (Table S2). Subsequently, we evaluated the effects of STR-V-53 on cell proliferation using a panel of human HCC cell lines (Huh-7, SK-Hep-1, and Hep3B) as well as Kupffer cells (liver resident macrophages) by MTS assay. We observed that STR-V-53 is 7- to 16-fold more cytotoxic against these HCC cell lines relative to the Kupffer cells (Figure 1g). […] Based on their weak HDAC and cell proliferation inhibition activities, we de-emphasized further evaluation of the class III compounds.\n(§2) 10-017-CV), supplemented with 10% fetal bovine serum (FBS) (Corning, 35-010-CV). Hep-G2 cells were cultured in phenol red-free Minimum Essential Medium (MEM) (Corning, 17-305-CV), supplemented with 10% fetal bovine serum (FBS). SK-Hep-1 in ATCC-formulated EMEM (ATCC® 30–2003™); Huh-7 in DMEM (containing 4 mM L-glutamine and 1 g/L glucose) with […]\n(§3) Kupffer Cell Media (Sekisui XenoTech, LLC, Cat. #K8700). Cells were seeded into a 96-well plate (2000 counts/100uL) for 24 h prior to treatment and then treated with various drug concentrations for 72 h. All drugs were dissolved in media with DMSO concentration maintained at 1%. The effect of compounds on cell viability was measured using the MTS assay (CellTiter 96 Aqueous One Solution and CellTiter 96 Non-Radioactive Cell Proliferation Assays, Promega, Madison, WI) as described by the manufacturer. IC50s were determined using Prism GraphPad 8. […]"}, "Hep3B": {"tested_on": "Hep3B", "test": "MTS cell viability assay, 72 h", "assay_type": "cell-based", "conditions": "Homo sapiens, Figure 1g, read-out: Anti-proliferation effects IC50 (μM) Hep3 B", "excerpt": "as §1, §2, §3"}, "[3]": {"tested_on": "Kupffer cells (liver resident macrophages)", "test": "MTS cell viability assay, 72 h", "assay_type": "cell-based", "conditions": "Macrophage; Figure 1g; read-out: Anti-proliferation effects IC50 (μM) Kupffer", "excerpt": "as §1, §2, §3"}, "SK-Hep-1": {"tested_on": "SK-Hep-1", "test": "MTS cell viability assay, 72 h", "assay_type": "cell-based", "conditions": "Homo sapiens, SK-HEP1; Figure 1g; read-out: Anti-proliferation effects IC50 (μM) SK-Hep-1", "excerpt": "as §1, §2, §3"}}, "data": [{"molecule": "O=C(CCCCCCn1cc(-c2ccc(O[C@H]3O[C@H](CO)[C@@H](O)[C@H](O)[C@H]3O)cc2)nn1)NO", "note": "[STR-V-53]", "values": [{"measurement": "IC50", "setting": "HDAC10", "value": 54, "unit": "nM"}, {"measurement": "IC50", "setting": "HDAC3/ NCOR2", "value": 21, "unit": "nM"}, {"measurement": "Kp at 8 h", "setting": "[1]; C57Bl/6, mouse, liver (relative to plasma), ip, 8 h, read-out: Level in the liver relative to plasma level", "value": "~4"}, {"measurement": "concentration at 8 h", "setting": "[1]; C57Bl/6, mouse, plasma, ip, 8 h postinjection, read-out: Average level in plasma", "value": "~0.01", "unit": "ng/mL"}, {"measurement": "Level in the lungs", "setting": "[1]; 8 h", "value": "below the detection limit"}, {"measurement": "Mean cell growth in NCI-60 panel", "setting": "[2]", "value": 99.6, "unit": "%"}, {"measurement": "IC50", "setting": "Huh-7", "value": 6.25, "unit": "µM"}, {"measurement": "IC50", "setting": "Hep3B", "value": 11.1, "unit": "µM"}, {"measurement": "IC50", "setting": "[3]", "value": "> 100", "unit": "µM"}, {"measurement": "IC50", "setting": "SK-Hep-1", "value": 13.9, "unit": "µM"}, {"measurement": "Body weight change of tumor-bearing mice (weight loss)", "setting": "RIL-175 murine HCC; RIL-175 model, 12 mice per group", "value": "4/12"}, {"measurement": "Tumor growth", "setting": "RIL-175 murine HCC; RIL-175 model, n = 12", "value": "minor effect on tumor growth"}, {"measurement": "Overall survival (Kaplan–Meier)", "setting": "RIL-175 murine HCC; RIL-175 model, n = 12, vs IgG control", "value": "no impact on survival"}, {"measurement": "Overt toxicity during the treatment period", "setting": "RIL-175 murine HCC; RIL-175 tumor-bearing mice", "value": "no significant overt toxicity"}]}]}
